These are literature values, as cited in article PMC4654502, “Early Gelatinase Activity Is Not a Determinant of Long-Term Recovery after Traumatic Brain Injury in the Immature Mouse” (PLoS ONE, 2015).

One data set has as its system TBI in adult mice. Particulars: 25 mg/kg; cited from earlier work.
The next data set deals with HI injury in rats at p21. Also on record: method as in PMID 23171520. To be noted: i.p. 50 mg/kg at 30 min, 6 h and 12 h after HI; cited from earlier work.
The subject of data set [1] is adult models of ischemic stroke. Also on record: method as in PMID 22587708. Particulars: cited from earlier work.
Data set [2] has as its system fluid-percussion injury in adult rats. Particulars: cited from earlier work.
The next data set has as its system HI in p7 rat pups. Particulars: cited from earlier work.

Turning to `O=S(=O)(CC1CS1)c1ccc(Oc2ccccc2)cc1` (stereo not drawn) [SB-3CT], in the data set on TBI in adult mice, the “functional and neuropathological outcomes after TBI in adult mice” value is “effective at improving functional and neuropathological outcomes”. For the same molecule, in the data set on HI injury in rats at p21, the “neuroprotection after HI injury” value is recorded as “failed to render significant neuroprotection” and the “pro-MMP-9 after acute treatment” value was “a reduction in pro-MMP-9”. In data set [1], the “behavioral and cognitive consequences of ischemic stroke” value is “ameliorate behavioral and cognitive consequences”; the infarct volumes result is reported as “reduce infarct volumes”. In addition, in data set [2], the “behavioral and cognitive deficits after TBI” value is “rescued behavioral and cognitive deficits”; the “hippocampal neurons after TBI” value is listed as “preserved hippocampal neurons”.

`CNC(=O)[C@H](Cc1c[nH]c2ccccc12)NC(=O)[C@@H](CC(=O)NO)CC(C)C` [GM6001]: in the data set with HI in p7 rat pups, the “acute cell death after HI” value was “amelioration of acute cell death” and the “ipsilateral brain tissue loss after HI” value is listed as “preservation of ipsilateral brain tissue loss”.
